# Laboratory results reported in US6602900B2, “Cyclopentane heptan(ENE)oic acid, 2-heteroarylalkenyl derivatives as therapeutic agents” (Allergan, Inc., priority 1992, dated 2003).
# Where two headings read alike, the source gives them in different places.
# Experiments:
# EP3 receptor = biological target: T1, EP3 receptor (UniProt A0A286XLZ9); experiment: EP3-activity: inhibition of the twitch response induced by electrical field stimulation in the isolated guinea pig vas deferens; format: cell-based; settings: pa = printed beside some values, read-out: EC50 (nM) EP3, first value of the cell
# T1 sequence (A0A286XLZ9 1-363): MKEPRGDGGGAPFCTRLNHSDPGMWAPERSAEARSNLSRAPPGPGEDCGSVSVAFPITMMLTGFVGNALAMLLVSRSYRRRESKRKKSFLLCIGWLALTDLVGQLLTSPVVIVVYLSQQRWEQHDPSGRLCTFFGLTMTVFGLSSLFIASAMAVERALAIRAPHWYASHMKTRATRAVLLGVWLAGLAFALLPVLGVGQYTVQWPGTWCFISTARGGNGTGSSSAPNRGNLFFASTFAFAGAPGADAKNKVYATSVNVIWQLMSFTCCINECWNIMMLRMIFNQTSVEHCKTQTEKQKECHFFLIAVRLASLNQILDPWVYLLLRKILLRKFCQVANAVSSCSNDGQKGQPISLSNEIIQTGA
# Method: (§1) Activity at different prostanoid receptors was measured in vitro in isolated smooth muscle preparations. FP-activity was measured as contraction of the isolated feline iris sphincter. EP1-activity was measured as contraction of the longitudinal smooth muscle of the isolated guinea pig ileum. EP3-activity was measured as inhibition of the twitch response induced by electrical field stimulation in the isolated guinea pig was deferens and as contraction of the longitudinal smooth muscle of the isolated chick ileum. Activity was also measured as relaxation of smooth muscle of isolated rabbit jugular vein a preparation which appears to contain a unique PGF2α-sensitive receptor provisionally termed FPVASC. TP-vasoconstrictor activity was measured as contraction of rings of the isolated rat thoracic aorta. Effects on platelets from healthy human donors were measured by incubating platelet-rich plasma with the compounds described herein. Inhibition of aggregation was determined by the ability of the compounds described herein to inhibit platelet aggregation in platelet-rich plasma induced by 20 μM ADP.
# [1] = system: PGF2α-sensitive receptor provisionally termed FPVASC; experiment: Relaxation of smooth muscle of isolated rabbit jugular vein; format: cell-based
# Method: as §1
# Dog eye (hyperemia) = experiment: Ocular surface hyperemia in dogs after topical dosing; format: in vivo; design: scale not given here
# Dog eye (miosis) = experiment: Miosis in dogs after topical dosing; format: in vivo
# EP1 receptor = biological target: T2, EP1 receptor (Cavia porcellus, UniProt A0A286XHJ6); experiment: EP1-activity: contraction of the longitudinal smooth muscle of the isolated guinea pig ileum; format: cell-based
# T2 sequence (A0A286XHJ6 1-405): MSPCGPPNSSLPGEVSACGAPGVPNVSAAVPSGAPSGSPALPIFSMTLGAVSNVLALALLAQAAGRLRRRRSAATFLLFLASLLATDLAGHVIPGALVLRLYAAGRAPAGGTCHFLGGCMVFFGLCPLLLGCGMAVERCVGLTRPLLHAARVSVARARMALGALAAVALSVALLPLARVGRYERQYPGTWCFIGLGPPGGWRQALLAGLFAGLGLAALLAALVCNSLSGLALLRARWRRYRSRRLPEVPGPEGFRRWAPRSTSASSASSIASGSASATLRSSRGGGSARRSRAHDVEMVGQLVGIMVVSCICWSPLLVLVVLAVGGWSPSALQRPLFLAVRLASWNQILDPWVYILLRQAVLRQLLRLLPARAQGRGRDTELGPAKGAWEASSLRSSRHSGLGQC
# Method: as §1
# TP receptor = biological target: T3, TP receptor (Rattus norvegicus, UniProt P34978); experiment: TP-vasoconstrictor activity: contraction of rings of the isolated rat thoracic aorta; format: cell-based
# T3 construct: rings of the isolated rat thoracic aorta; from tissue; host or cells: isolated rat thoracic aorta rings
# T3 sequence (P34978 1-341): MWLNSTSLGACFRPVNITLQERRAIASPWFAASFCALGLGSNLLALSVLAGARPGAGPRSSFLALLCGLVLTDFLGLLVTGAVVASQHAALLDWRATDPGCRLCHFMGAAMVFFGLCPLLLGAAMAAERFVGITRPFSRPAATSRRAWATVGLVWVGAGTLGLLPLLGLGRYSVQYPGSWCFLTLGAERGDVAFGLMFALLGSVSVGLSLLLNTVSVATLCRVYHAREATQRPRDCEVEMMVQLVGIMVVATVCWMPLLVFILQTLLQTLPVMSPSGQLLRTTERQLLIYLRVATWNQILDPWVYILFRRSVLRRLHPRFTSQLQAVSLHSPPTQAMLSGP
# Method: as §1
# [2] = isolated rabbit jugular vein relaxation, read-out: EC50 (nM) FPVASC
# [3] = isolated rat thoracic aorta contraction, read-out: EC50 (nM) TP
# [4] = read-out: rbFPv/EP4, Table of compounds 17a-25, unit inferred
# [5] = Table of compounds 17a-25, unit inferred, read-out: rtTPva
SMILES,EC50 (EP3 receptor),"EC50 [1, 2]",EC50 (EP1 receptor),EC50 (TP receptor; [3]),"EC50 [1, 4]",further results
O=C(O)CCC/C=C\C[C@@H]1[C@@H](/C=C/[C@@H](O)CCc2cc3ccccc3o2)[C@H](O)C[C@@H]1O,9000 nM,> 69000 nM,,,,Hyp (hyperemia score) (Dog eye (hyperemia); 0.01%): 0.17; Hyp (hyperemia score) (Dog eye (hyperemia); 0.1%): 0.13; Miosis (Dog eye (miosis); 0.01%): 0; Miosis (Dog eye (miosis); 0.1%): 0
O=C(O)CCC/C=C\C[C@@H]1[C@@H](/C=C/[C@@H](O)CCc2ccsc2)[C@H](O)C[C@@H]1O [drawing 12],400 nM,9.2 nM,2000 nM,2460 nM,,Hyp (hyperemia score) (Dog eye (hyperemia); 0.1%): 0.6; Miosis (Dog eye (miosis); 0.1%): pinpoint
O=C(O)CCC/C=C\C[C@@H]1[C@@H](/C=C/[C@@H](O)CCc2cc3ccccc3s2)[C@H](O)C[C@@H]1O,~10000 nM,2660 nM,,,,
"CS(=O)(=O)NC(=O)CCC/C=C\C[C@@H]1[C@@H](/C=C/[C@@H](O)CCc2ccc(Cl)s2)[C@H](O)C[C@@H]1O [Compound 20a, N-Methylsulfonyl-7-[3α,5α-Dihydroxy-2-(3α-hydroxy-5-(2-(5-chloro)thienyl)-1E-pentenyl)cyclopentyl]-5Z-heptenamide]",,,,,6070 nM,
O=C(O)CCC/C=C\C[C@@H]1[C@@H](/C=C/[C@@H](O)CCc2ccc(Br)s2)[C@H](O)C[C@@H]1O,36 nM,8.5 nM,> 10000 nM,5080 nM,,Hyp (hyperemia score) (Dog eye (hyperemia); 0.1%): 1.0; Miosis (Dog eye (miosis); 0.1%): pinpoint
NC(=O)CCC/C=C\C[C@@H]1[C@@H](/C=C/[C@H](O)CCc2ccsc2)[C@H](O)C[C@@H]1O,,,,,,Hyp (hyperemia score) (Dog eye (hyperemia); 0.1%): 0.72; Miosis (Dog eye (miosis); 0.1%): pin
O=C(O)CCC/C=C\C[C@@H]1[C@@H](/C=C/[C@@H](O)CCc2cccs2)[C@H](O)C[C@@H]1O,43 nM,20 nM,> 10000 nM,4010 nM,,Hyp (hyperemia score) (Dog eye (hyperemia); 0.1%): 0.38; Miosis (Dog eye (miosis); 0.1%): pinpt
"N#Cc1ccc(CC[C@H](O)/C=C/[C@@H]2[C@@H](C/C=C\CCCC(N)=O)[C@@H](O)C[C@H]2O)s1 [Compound 17b, 7-[3α,5α-Dihydroxy-2-(3α-hydroxy-5-(2-(5-cyano)thienyl)-1E-pentenyl)cyclopentyl]-5Z-heptenamide]",,,,,> 256000 nM,
"CCS(=O)(=O)NC(=O)CCC/C=C\C[C@@H]1[C@@H](/C=C/[C@@H](O)CCc2ccc(Cl)s2)[C@H](O)C[C@@H]1O [Compound 20b, N-Ethylsulfonyl-7-[3α,5α-Dihydroxy-2-(3α-hydroxy-5-(2-(5-chloro)thienyl)-1E-pentenyl)cyclopentyl]-5Z-heptenamide]",,,,,1040 nM,
O=C(O)CCC/C=C\C[C@@H]1[C@@H](/C=C/[C@@H](O)CCc2sccc2Cl)[C@H](O)C[C@@H]1O,,122 nM,> 10000 nM,3530 nM,,
O=C(O)CCC/C=C\C[C@@H]1[C@@H](/C=C/[C@@H](O)CCc2cc(Br)cs2)[C@H](O)C[C@@H]1O,50 nM,16 nM,> 10000 nM,371 nM,,
Cc1ccc(CC[C@H](O)/C=C/[C@@H]2[C@@H](C/C=C\CCCC(=O)O)[C@@H](O)C[C@H]2O)s1,341 nM,> 7690 nM,> 10000 nM,> 10000 nM,,
"N#Cc1ccc(CC[C@H](O)/C=C/[C@@H]2[C@@H](C/C=C\CCCC(=O)O)[C@@H](O)C[C@H]2O)s1 [Compound 17a, 7-[3α,5α-Dihydroxy-2-(3α-hydroxy-5-(2-(5-cyano)thienyl)-1E-pentenyl)cyclopentyl]-5Z-heptenoic acid]",,,,,112 nM,EC50 (TP receptor; [5]): ~10000 nM
"O=C(CCC/C=C\C[C@@H]1[C@@H](/C=C/[C@@H](O)CCc2ccc(I)s2)[C@H](O)C[C@@H]1O)NS(=O)(=O)C(F)(F)F [Compound 21c, N-Trifluoromethylsulfonyl-7-[3α,5α-Dihydroxy-2-(3α-hydroxy-5-(2-(5-iodo)thienyl)-1E-pentenyl)cyclopentyl]-5Z-heptenamide]",,,,,36 nM,
CCc1ccc(CC[C@H](O)/C=C/[C@@H]2[C@@H](C/C=C\CCCC(=O)O)[C@@H](O)C[C@H]2O)s1,,21 nM,,> 10000 nM,,
O=C(O)CCC/C=C\C[C@@H]1[C@@H](/C=C/[C@@H](O)CCc2ccoc2)[C@H](O)C[C@@H]1O,83 nM,,> 10000 nM,5400 nM,,Hyp (hyperemia score) (Dog eye (hyperemia); 0.01%): 0.83; Hyp (hyperemia score) (Dog eye (hyperemia); 0.1%): 0.38; Miosis (Dog eye (miosis); 0.01%): mild; Miosis (Dog eye (miosis); 0.1%): pinpoint
O=C(O)CCC/C=C\C[C@@H]1[C@@H](/C=C/[C@@H](O)CCc2sccc2F)[C@H](O)C[C@@H]1O [Compound 18b],,,,,2.9 nM,EC50 (TP receptor; [5]): 3500 nM
NC(=O)CCC/C=C\C[C@@H]1[C@@H](/C=C/[C@@H](O)CCc2cc(Cl)sc2Cl)[C@H](O)C[C@@H]1O,,82 nM,,> 10000 nM,,Hyp (hyperemia score) (Dog eye (hyperemia); 0.1%): 1.2; Miosis (Dog eye (miosis); 0.1%): pinpoint
O=C(O)CCC/C=C\C[C@@H]1[C@@H](/C=C/[C@@H](O)CCc2nccs2)[C@H](O)C[C@@H]1O,,1000 nM,,,,Hyp (hyperemia score) (Dog eye (hyperemia); 0.1%): 0.6; Miosis (Dog eye (miosis); 0.1%): pinpoint
Cc1sccc1CC[C@H](O)/C=C/[C@@H]1[C@@H](C/C=C\CCCC(=O)O)[C@@H](O)C[C@H]1O,355 nM,> 833 nM,> 10000 nM,3980 nM,,
"CC(C)OC(=O)CCC/C=C\C[C@@H]1[C@@H](/C=C/[C@@H](O)CCc2ccc(C#N)s2)[C@H](O)C[C@@H]1O [Compound 17c, Isopropyl-7-[3α,5α-Dihydroxy-2-(3α-hydroxy-5-(2-(5-cyano)thienyl)-1-E-pentenyl)cyclopentyl]-5Z-heptenoate]",,,,,6510 nM,
O=C(O)CCC/C=C\C[C@@H]1[C@@H](CCC(O)CCc2ccoc2)[C@H](O)C[C@@H]1O (some centres unmarked),,> 5880 nM,,,,
"O=C(CCC/C=C\C[C@@H]1[C@@H](/C=C/[C@@H](O)CCc2ccc(Cl)s2)[C@H](O)C[C@@H]1O)NS(=O)(=O)C(F)(F)F [Compound 20c, N-Trifluoromethylsulfonyl-7-[3α,5α-Dihydroxy-2-(3α-hydroxy-5-(2-(5-chloro)thienyl)-1E-pentenyl)cyclopentyl]-5Z-heptenamide]",,,,,221 nM,EC50 (TP receptor; [5]): > 10000 nM
NC(=O)CCC/C=C\C[C@@H]1[C@@H](/C=C/[C@@H](O)CCc2ccsc2)[C@H](O)C[C@@H]1O,> 10000 nM,3.6 nM,> 10000 nM,> 10000 nM,,
O=C(O)CCC/C=C\C[C@@H]1[C@@H](/C=C/[C@H](O)CCc2nccs2)[C@H](O)C[C@@H]1O,,28300 nM,,,,
O=C(O)CCC/C=C\C[C@@H]1[C@@H](CC[C@@H](O)CCc2ccsc2)[C@H](O)C[C@@H]1O,105 nM,545 nM,> 10000 nM,4740 nM,,
"CS(=O)(=O)NC(=O)CCC/C=C\C[C@@H]1[C@@H](/C=C/[C@@H](O)CCc2ccc(I)s2)[C@H](O)C[C@@H]1O [Compound 21a, N-Methylsulfonyl-7-[3α,5α-Dihydroxy-2-(3α-hydroxy-5-(2-(5-iodo)thienyl)-1E-pentenyl)cyclopentyl]-5Z-heptenamide]",,,,,1820 nM,
"CCS(=O)(=O)NC(=O)CCC/C=C\C[C@@H]1[C@@H](/C=C/[C@@H](O)CCc2ccc(I)s2)[C@H](O)C[C@@H]1O [Compound 21b, N-Ethylsulfonyl-7-[3α,5α-Dihydroxy-2-(3α-hydroxy-5-(2-(5-iodo)thienyl)-1E-pentenyl)cyclopentyl]-5Z-heptenamide]",,,,,189 nM,
O=C(O)CCC/C=C\C[C@@H]1[C@@H](/C=C/[C@H](O)CCc2ccsc2)[C@H](O)C[C@@H]1O,,58 nM,,,,
